Experimental data published in patent publication US20120156139A1, “ISOTOPICALLY LABELED NEUROCHEMICAL AGENTS AND USES THEROF FOR DIAGNOSING CONDITIONS AND DISORDERS” (priority 2009, published 2012).

Columns and labels:
Assay type in all cases: physicochemical
[1] = 13C T1 inversion recovery studies of L-DOPA, dopamine and partially deuterated dopamine; conditions: for T1 of C1 / T1 of C2 / T1 of C3: 13C at natural abundance, inversion recovery, 500 MHz scanner; for Elongation factor, T1 of C1 / Elongation factor, T1 of C2 / Elongation factor, T1 of C3: relative to dopamine HCl (A)
Protocol: Inversion recovery studies were carried out on protonated L-DOPA and dopamine and partially deuterated dopamine a in order to determine the ^13C T1 relaxation times in these molecules. The inversion recovery studies were carried out on a 500 MHz scanner (Varian), equipped with a 5 mm double tuned ^13C/^1H probe. Carbon-13 signals were detected in these molecules at natural abundance. The number of transitions ranged between 300 to 400 per relaxation delay (t) with a total scanning time of 12 to 48 hours. Dopamine HCl and L-DOPA were obtained from Sigma-Aldrich (Israel). [1,1,2,2-D4]-Dopamine HCl, and [D3-ring, 2,2-D2]-Dopamine were obtained from Cambridge Isotope Laboratories (MA, USA).

[2] = T1 of position 2 in [1,1,2,2-D4,2-13C]-choline at various magnetic field strengths and temperatures; conditions: for Liquid state T1 of position 2: DNP-enhanced liquid state sample, 14.1 T
Protocol: The T1 of position 2 in [1,1,2,2-D4,2-^13C]-choline was further investigated at various magnetic field strengths and temperatures. The liquid state T1 was measured on a DNP-enhanced liquid state sample at 14.1 T at approx. 37° C. (T1=48±2 sec) and at higher temperatures of between about 40 to about 50° C. (T1=56±4 sec).
In addition, thermal equilibrium T1 measurement was performed at 9.4 T at 37° C. (T1=41 sec). The low field T1 of [1,1,2,2-D4,2-^13C]-choline was estimated by placing the enhanced sample in the fringe field of an unshielded 14.1 T magnet (n=2). From this experiment it was concluded that the low field T1 is long (>40 s) and that the T1 of the deuterated methylene carbon in choline is less affected by field strength.

[3] = 13C T1 inversion recovery studies of choline and deuterated cholines at 11.8 T; conditions: for Elongation factor, T1 of C1 / Elongation factor, T1 of C2: relative to choline Cl- (A)
Protocol: The data in Table 2 were obtained using a series of inversion recovery studies at 11.8 T which were carried out in order to determine the ^13C T1 relaxation times of a deuterated choline molecule and of a partially deuterated choline molecule [1,1,2,2-D4]-choline Cr. The T1 of the trimethyl amine position in the fully deuterated choline molecule was 28 sec, which represented an approximate 8 fold elongation factor compared to the native choline molecule in which the trimethyl amine positions are protonated. Inversion recovery studies were carried out on a 500 MHz scanner (Varian), equipped with a 5 mm double tuned ^13C/^1H probe. Carbon-13 signals were detected in these molecules at natural abundance. The number of transitions ranged between 300 to 400 per relaxation delay (r) with a total scanning time of 12 to 67 hours due to a relaxation delay of 130 sec. The data were fitted to the standard inversion recovery equation. The possible effect of concentration on T1 was investigated in a concentration range of 20 mM to […], no significant effect of concentration on T1 was found in this concentration range. Choline Cl^− and [1,1,2,2-D4]-Choline CU were obtained from Sigma-Aldrich (Israel). Choline-D13 Br^− (fully deuterated) was obtained from Cambridge Isotope Laboratories (MA, USA).

[4] = T1 values of additional deuterated compounds
[5] = 13C at natural abundance, inversion recovery, 11.8 T

Row | T1 of C1 [1] [s] | T1 of C2 [1] [s] | T1 of C3 [1] [s] | T1 of C1 [3, 5] [s] | T1 of C2 [3, 5] [s] | Compound | also measured
1 | 2.3 | 2.3 | 3.9 | – | – | N[C@@H](Cc1ccc(O)c(O)c1)C(=O)O [L-DOPA (non deuterated), L-DOPA] | –
2 | – | – | – | – | – | [2H]C([2H])(O)[13C]([2H])([2H])[N+](C)(C)C [[1,1,2,2-D4,2-^13C]-choline] | Thermal equilibrium T1 ([2]; 9.4 T, 37 °C): 41 s; Liquid state T1 of position 2 ([2]; about 40 to about 50 °C): 56 ± 4 s; Liquid state T1 of position 2 ([2]; approx. 37 °C): 48 ± 2 s; Low field T1 ([2]; enhanced sample in the fringe field of an unshielded 14.1 T magnet, n=2, estimated): > 40 s
3 | – | – | – | 29.1 | 34.9 | [2H]C([2H])(O)C([2H])([2H])[N+](C)(C)C.[Cl-] [[1,1,2,2-D4]-choline Cl^−] | Elongation factor, T1 of C1 ([3]; 11.8 T): 5.6; Elongation factor, T1 of C2 ([3]; 11.8 T): 7.1
4 | 8.7 | 9.3 | 6.3 | – | – | Cl.[2H]C([2H])(N)C([2H])([2H])c1ccc(O)c(O)c1 [[1,1,2,2-D4]-dopamine HCl] | Elongation factor, T1 of C1 [1]: 7.9; Elongation factor, T1 of C2 [1]: 9.3; Elongation factor, T1 of C3 [1]: 1.0
5 | – | – | – | – | – | [2H]C([2H])(NC(=N)N)C([2H])([2H])C([2H])([2H])[C@]([2H])(N)C(=O)O [[2,3,3,4,4,5,5-D7]-arginine, [2,3,3,4,4,5,5-D7]-arginine: NH2C(NH)NHCD2CD2CD2CD(NH2)CO2H] | T1 of carbons at positions 2, 3, 4, and 5 [4]: ~8 s
6 | 1.0 | 4.4 | 5.4 | – | – | Cl.[2H]c1c([2H])c(C([2H])([2H])CN)c([2H])c(O)c1O [[D3 ring,2,2-D2]-dopamine HCl] | Elongation factor, T1 of C1 [1]: 1.0; Elongation factor, T1 of C2 [1]: 4.4; Elongation factor, T1 of C3 [1]: 0.8
7 | – | – | – | – | – | [2H]c1c([2H])c([2H])c2c(C([2H])([2H])[C@]([2H])(N)C(=O)O)c[nH]c2c1[2H] [[D7]-L-tryptophan, [D7]-L-tryptophan: C6D4C(CD2-CD(NH2)COOH)CH—NH] | T1 of position 10 ([4]; dissolved in H2O and 15% D2O (54.5 mM), 11.8 T): ~13 s
8 | – | – | – | 32.0 | 32.9 | [2H]C([2H])(O)C([2H])([2H])[N+](C([2H])([2H])[2H])(C([2H])([2H])[2H])C([2H])([2H])[2H].[Br-] [[D13]-choline Br^−] | T1 of the trimethyl amine position [3, 5]: 28 s; Elongation factor of T1 of the trimethyl amine position ([3]; compared to the native choline molecule with protonated trimethyl amine positions): ~8 fold; Elongation factor, T1 of C1 ([3]; 11.8 T): 6.2; Elongation factor, T1 of C2 ([3]; 11.8 T): 6.7
9 | – | – | – | 5.2 | 4.9 | C[N+](C)(C)CCO.[Cl-] [choline Cl^−] | –

Row | Compound | T1 of C1 [1] [s] | T1 of C2 [1] [s] | T1 of C3 [1] [s] | T1 of C1 [3, 5] [s] | T1 of C2 [3, 5] [s] | also measured
10 | Cl.NCCc1ccc(O)c(O)c1 [dopamine HCl] | 1.1 | 1.0 | 6.4 | – | – | –
